Read-outs that look alike come from different tables or passages of the source. Where a SMILES comes first, the peptide text is derived from it. Where no end group is shown, it is not given here. [ ]: non-standard residue; d: D form. The star is where a group is joined. Octanoyl = CCCCCCCC(=O)*
How the values were obtained:
human GHSR1a = human GHSR1a (Homo sapiens, UniProt Q92847); test: Aequorin bioluminescence functional assay (intracellular calcium mobilization) in 293AEQ17/GHSR1a cells; assay type: cell-based; details: for activation at 10 µM: read-out: Functional Assay % activation at 10 μM relative to ghrelin; for EC50: aequorin bioluminescence, HEK-293 cells expressing hGHSR1a, three separate assays
Method: A stable cell line expressing the human GHSR1a and the aequorin reporter protein were used for the assay.
The assay was performed using a Luminoskan RT luminometer (Labsystems Inc., Gaithersburg, Md.) controlled by custom software written for a Macintosh PowerPC 6100. […] The cells were harvested, washed once in ECB medium and resuspended to 500,000 cells/ml. 100 ml of cell suspension (corresponding to 5×10^4 cells) was then injected into the test plate containing the peptides, and the integrated light emission was recorded over 30 seconds, in 0.5 second units. 20 μL of lysis buffer (0.1% final Triton X-100 concentration) was then injected and the integrated light emission recorded over 10 seconds, in 0.5 second units. The “fractional response” values for each well were calculated by taking the ratio of the integrated response to the initial challenge to the total integrated luminescence including the Triton X-100 lysis response. The functional EC50 values were measured in three separate assays.

human GHS receptor 1a = human GHS receptor 1a (Homo sapiens, UniProt Q92847); test: Competitive binding assay with [35S]-MK-677 on membranes of HEK 293-aequorin cells transfected with human GHS receptor; details: competition with 0.05 nM [35S]-MK-677; three separate assays in triplicate
Method: Prior to the binding assay, the HEK 293-AEQ17 cells (8×10^5 cells plated 18 hours before transfection in a T75 flask) were transfected with 22 μg of human GHS receptor plasmid using 264 μg lipofectamine. The open reading frame cDNA (SEQ. ID. NO. 22) encoding the human GHS receptor inserted in the mammalian expression vector pcDNA-3 (Invitrogen, Carlsbad, Calif.) was used for binding and expression studies.
For a 96-well filter binding assay, 0.05 nM [^35S]-NM-677 (specific activity ˜1200 Ci/mmol) was bound to 4 μg membrane protein per well with or without competing test ligand. The bound membranes were filtered on 0.5% polyethylenimine prewet filters (UniFilter 96 GF/C; Packard #6005174, Meriden, Conn.). Filters were washed 8 times, dried, and counted with Microscint 20 (Packard #6013621, Meriden, Conn.). IC50 values were determined from three separate assays performed in triplicate.

somatotrops = details: several species including man; cited from earlier work

Sequence of human GHSR1a (Q92847 whole entry): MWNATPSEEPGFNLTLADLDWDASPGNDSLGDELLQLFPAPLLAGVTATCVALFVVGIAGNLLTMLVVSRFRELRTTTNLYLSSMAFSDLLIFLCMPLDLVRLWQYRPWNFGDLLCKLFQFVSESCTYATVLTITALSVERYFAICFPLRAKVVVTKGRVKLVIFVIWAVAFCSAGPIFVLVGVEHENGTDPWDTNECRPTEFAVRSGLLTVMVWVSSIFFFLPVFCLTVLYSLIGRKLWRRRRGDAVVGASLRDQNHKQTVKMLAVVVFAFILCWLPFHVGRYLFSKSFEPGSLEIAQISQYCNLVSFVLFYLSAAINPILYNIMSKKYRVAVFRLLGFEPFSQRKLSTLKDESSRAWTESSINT
Sequence of human GHS receptor 1a (Q92847 whole entry): as above

`CCCCCCCC(=O)NC[C@H](NC(=O)[C@H](CO)NC(=O)CN)C(=O)N[C@@H](Cc1ccccc1)C(=O)N[C@@H](CC(C)C)C(=O)N[C@@H](CO)C(=O)N1CCC[C@H]1C(=O)N[C@@H](CCC(=O)O)C(=O)N[C@@H](Cc1c[nH]cn1)C(=O)N[C@@H](CCC(N)=O)C(=O)N[C@@H](CCCNC(=N)N)C(=O)N[C@H](C(=O)N[C@@H](CCC(N)=O)C(=O)N[C@@H](CCC(N)=O)C(=O)N[C@@H](CCCNC(=N)N)C(=O)N[C@@H](CCCCN)C(=O)N[C@@H](CCC(=O)O)C(=O)N[C@@H](CO)C(=O)N[C@@H](CCCCN)C(=O)N[C@@H](CCCCN)C(=O)N1CCC[C@H]1C(=O)N1CCC[C@H]1C(=O)N[C@@H](C)C(=O)N[C@@H](CCCCN)C(=O)N[C@@H](CC(C)C)C(=O)N[C@@H](CCC(N)=O)C(=O)N1CCC[C@H]1C(=O)N[C@@H](CCCNC(=N)N)C(=O)O)C(C)C` [Compound 12] showed an activation at 10 µM (human GHSR1a; at 10 μM, relative to ghrelin) of 105 ± 5%.

Work on `CCCCCCCC(=O)OC[C@H](NC(=O)[C@H](CO)NC(=O)CN)C(=O)N[C@@H](Cc1ccccc1)C(=O)N[C@@H](CC(C)C)C(=O)N[C@@H](CO)C(=O)N1CCC[C@H]1C(=O)N[C@@H](CCC(=O)O)C(=O)N[C@@H](Cc1c[nH]cn1)C(=O)N[C@@H](CCC(N)=O)C(=O)N[C@@H](CCCNC(=N)N)C(=O)N[C@H](C(=O)N[C@@H](CCC(N)=O)C(=O)N[C@@H](CCC(N)=O)C(N)=O)C(C)C` [Compound 13, GSXFLSPEHQRVQQ] yielded an activation at 10 µM (human GHSR1a; at 10 μM, relative to ghrelin) of 97 ± 9%.

For `CCCCCCCC(=O)NC[C@H](NC(=O)[C@H](CO)NC(=O)CN)C(=O)N[C@@H](Cc1ccccc1)C(=O)N[C@@H](CC(C)C)C(=O)N[C@@H](CO)C(=O)N1CCC[C@H]1C(=O)N[C@@H](CCC(=O)O)C(=O)N[C@@H](Cc1c[nH]cn1)C(=O)N[C@@H](CCC(N)=O)C(=O)N[C@@H](CCCNC(=N)N)C(=O)N[C@H](C(=O)N[C@@H](CCC(N)=O)C(=O)N[C@@H](CCC(N)=O)C(=O)O)C(C)C` [Compound 14], the activation at 10 µM (human GHSR1a; at 10 μM, relative to ghrelin) was 102 ± 3%.

For `CCCCCCCC(=O)OC[C@H](NC(=O)[C@H](CO)NC(=O)CN)C(=O)N[C@@H](Cc1ccccc1)C(=O)N[C@@H](CC(C)C)C(=O)N[C@@H](CO)C(=O)N1CCC[C@H]1C(=O)N[C@@H](CCC(=O)O)C(=O)N[C@@H](Cc1c[nH]cn1)C(=O)N[C@@H](CCC(N)=O)C(=O)N[C@@H](CCCNC(=N)N)C(=O)N[C@H](C(=O)N[C@@H](CCC(N)=O)C(=O)N[C@@H](CCC(N)=O)C(=O)N[C@@H](CCCNC(=N)N)C(=O)N[C@@H](CCCCN)C(=O)N[C@@H](CCC(=O)O)C(=O)N[C@@H](CO)C(=O)N[C@@H](CCCCN)C(=O)N[C@@H](CCCCN)C(=O)N1CCC[C@H]1C(=O)N1CCC[C@H]1C(=O)N[C@@H](C)C(N)=O)C(C)C` [Compound 18, GSXFLSPEHQRVQQRKESKKPPA-NH2] (H-GSS(Octanoyl)FLSPEHQRVQQRKESKKPPA-NH2), the activation at 10 µM (human GHSR1a; at 10 μM, relative to ghrelin) was 100 ± 4%.

With `CCCCCCCC(=O)OC[C@H](NC(=O)[C@H](CO)NC(=O)CN)C(=O)N[C@@H](Cc1ccccc1)C(=O)N[C@@H](CC(C)C)C(=O)N[C@@H](CO)C(=O)N1CCC[C@H]1C(=O)N[C@@H](CCC(=O)O)C(=O)N[C@@H](Cc1c[nH]cn1)C(=O)N[C@@H](CCC(N)=O)C(=O)N[C@@H](CCCNC(=N)N)C(=O)N[C@H](C(=O)N[C@@H](CCC(N)=O)C(=O)N[C@@H](CCC(N)=O)C(=O)N[C@@H](CCCNC(=N)N)C(=O)N[C@@H](CCCCN)C(=O)N[C@@H](CCC(=O)O)C(=O)N[C@@H](CO)C(N)=O)C(C)C` [Compound 19, GSXFLSPEHQRVQQRKES-NH2] (H-GSS(Octanoyl)FLSPEHQRVQQRKES-NH2; N-terminus assumed) the activation at 10 µM (human GHSR1a; at 10 μM, relative to ghrelin) was 92 ± 16%.

In the case of `CCCCCCCC(=O)OC[C@H](NC(=O)[C@H](CO)NC(=O)CN)C(=O)N[C@@H](Cc1ccccc1)C(=O)N[C@@H](CC(C)C)C(N)=O` [Compound 21, GSXFL-NH2] (H-GSS(Octanoyl)FL-NH2), the activation at 10 µM (human GHSR1a; at 10 μM, relative to ghrelin) is reported as 96 ± 7%.

With `CCCCCCCC(=O)OC[C@H](NC(=O)[C@H](CO)NC(=O)CN)C(=O)N[C@@H](Cc1ccccc1)C(N)=O` [Compound 22, GSXF-NH2] (H-GSS(Octanoyl)F-NH2) the IC50 (human GHS receptor 1a) was 0.889 ± 0.072 µM, the EC50 (human GHSR1a) was 0.072 ± 0.029 µM and the activation at 10 µM (human GHSR1a; at 10 μM, relative to ghrelin) was 91 ± 4%.

For `CCCCCCCC(=O)OC[C@H](NC(=O)[C@H](CO)NC(C)=O)C(=O)N[C@@H](Cc1ccccc1)C(=O)N[C@@H](CC(C)C)C(N)=O` [Compound 23, Ac-SXFL-NH2] (Ac-SS(Octanoyl)FL-NH2), the EC50 (human GHSR1a) was 1.15 ± 0.12 µM and the activation at 10 µM (human GHSR1a; at 10 μM, relative to ghrelin) was 30 ± 5%.

In the case of `CCCCCCCC(=O)OC[C@H](NC(=O)[C@H](CO)NC(=O)CN)C(N)=O` [Compound 24, GSX-NH2] (H-Gly-Ser-Ser(Octanoyl)-NH2), the activation at 10 µM (human GHSR1a) is reported as 28 ± 1%.

`CCCCCCCC(=O)OC[C@H](NC(C)=O)C(=O)N[C@@H](Cc1ccccc1)C(=O)N[C@@H](CC(C)C)C(N)=O` [Compound 25, Ac-XFL-NH2] (Ac-Ser(Octanoyl)-Phe-Leu-NH2) showed an EC50 (human GHSR1a) of 2.5 ± 1.2 µM and an activation at 10 µM (human GHSR1a) of 29 ± 7%.

`CCCCCCCC(=O)OC[C@H](NC(=O)[C@H](CO)NC(C)=O)C(=O)N[C@@H](Cc1ccccc1)C(N)=O` [Compound 26, Ac-SXF-NH2] (Ac-Ser-Ser(Octanoyl)-Phe-NH2) showed an activation at 10 µM (human GHSR1a; at 10 μM, relative to ghrelin) of 28 ± 1%.

In the case of H[dW]AW[dF]K-NH2 [GHRP-6], the “growth hormone release from somatotrops, result in words” value (somatotrops) is listed as “release growth hormone from somatotrops in a dose-dependent manner”.
